Test results reported in article PMC5622107, “Small molecule inhibition of cGAS reduces interferon expression in primary macrophages from autoimmune mice” (Nature Communications, 2017).
“And” between values parts separate entries of the source, which are not always exact repeats. Equal entries are not always repeated. Where two headings read alike, the source gives them in different places.

Tests used:
[1] = system: RAW 264.7; assay: Cytotoxicity, CellTiter-Glo ATP quantitation at 72 h; format: cell-based; conditions: for LD50: RAW macrophages, 72 h, percent viability
Experimental: Small-molecule compounds were serially diluted to concentrations spanning the range tested in the response curves were added to 6.7 × 10^5 RAW-Blue macrophages plated 16 h prior in 96-well dishes, then harvested 72 h after compound addition. ATP was measured using CellTiter Glo Viability Assay (Promega) using 50 µM Tamoxifen (Sigma) as a positive control for cytotoxicity. Viability values were generated using vehicle (DMSO) or the first dose (RU.521) as 100% and Tamoxifen as 0%. Outliers were removed as described previously.

[2] = system: cGAS activity in dsDNA-stimulated RAW macrophages; assay: Cellular luciferase assay, interferon-responsive reporter in dsDNA-stimulated RAW macrophages; format: cell-based; conditions: Mus musculus, Macrophage, dsDNA-activated RAW cells
Experimental: The sequence and annealing conditions of the dsDNA used is described above. Typically, 0.4 µg or 0.6 µg of dsDNA was used to stimulate RAW-Lucia ISG-KO-TREX1/ISG-KO-cGAS or RAW-Lucia ISG cells, respectively, which equated to 90% of maximal luciferase activity observed. dsDNA stimulation of RAW macrophages and subsequent luciferase measurements were performed with or without the addition of small molecules at indicated concentrations in each figure, or with DMSO as vehicle control. For the dose curve experiments, serial dilutions of inhibitors were applied to 6.7 × 10^5 cells, plated in 24-well dishes, and co-stimulated with 0.4 µg of dsDNA. In subsequent experiments using inhibitors in RAW cells, the small molecules were used at concentrations representing the derived EC75 values, while co-stimulated with one of the following: 0.4 µg dsDNA, 50 nM 5′ppp-HP20 hairpin RNA (a kind gift from Dr Anna Pyle, Yale University; sequence located in Supplementary Table 5), 10 µM cGAMP, or 100 U ml^−1 murine recombinant Ifnb (R&D Systems). dsDNA was transfected using Lipofectamine LTX. 5′ppp-HP20 RNA was transfected using Lipofectamine 2000. Cells were harvested 24 h post-transfection, washed with PBS, and lysed in 1× Luciferase Cell Lysis Buffer (Pierce).
The minimum numbers of biological and technical replicates for the luciferase assays were two and three, respectively. Analysis of luminescence values were evaluated for outliers (one standard deviation above and below the mean) for each biological replicate, and the resulting means were used to generate graphs in GraphPad Prism (v. 7.0c); where applicable, an unpaired t-test with Welch’s correction was used to compare the results of each individual compound to dsDNA or other stimulant. The experimental variances observed within control samples (untreated or vehicle) and treated samples were similar.

[3] = target: T1, cGAS/dsDNA complex (Mus musculus, UniProt Q8C6L5); assay: Isothermal titration calorimetry, compound titrated into cGAS/dsDNA complex; format: binding
T1 construct: full-length (for high-throughput screening) and residues 147–507 (for structural study) of cGAS; His6-SUMO (N, cleaved yes); made in house; host or cells: E. coli BL21(DE3) RIL
T1 sequence (Q8C6L5 147-507, one chain of several): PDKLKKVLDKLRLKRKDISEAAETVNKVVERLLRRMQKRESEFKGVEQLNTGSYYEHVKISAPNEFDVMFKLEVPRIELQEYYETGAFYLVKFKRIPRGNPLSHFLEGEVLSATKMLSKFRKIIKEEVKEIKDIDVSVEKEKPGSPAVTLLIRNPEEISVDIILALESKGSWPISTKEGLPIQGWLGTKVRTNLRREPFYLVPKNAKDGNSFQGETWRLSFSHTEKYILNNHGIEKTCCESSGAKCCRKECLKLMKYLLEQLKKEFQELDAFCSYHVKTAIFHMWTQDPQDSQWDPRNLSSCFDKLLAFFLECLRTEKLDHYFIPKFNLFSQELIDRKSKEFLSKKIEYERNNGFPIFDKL
Experimental: ITC measurements were performed at 25 °C using a MicroCal auto-iTC200 calorimeter (MicroCal, LLC). Purified truncated mouse cGAS was dialyzed against 40 mM HEPES buffer (pH 7.5) and 300 mM NaCl for 24 h at 4 °C. Dialysis led to some precipitation, which were removed through centrifugation followed by collection of the supernatant. The concentration of the protein in supernatant was measured using Pierce® BCA protein assay. The protein was flash frozen in liquid N2 and stored at −80 °C. For the ITC assay, the dialyzed protein was prediluted to 20 µM in the dialysis buffer and diluted to a final concentration of 10 µM in a final buffer containing 40 mM HEPES, 1% DMSO, 150 mM NaCl, 0.01% Tween-20 and + /− dsDNA 10 µM and + /− ATP or GTP 1 mM. Then, 2 μl RU.365 100 µM, dissolved in the buffer aforementioned, were injected into 0.2 ml of protein in the chamber every 150 s. Data for raw ITC and thermodynamic curves, each from one experiment, were downloaded after analysis using Affinimeter software and plotted using GraphPad Prism (7.01). The software calculates error bars as an indication of the contribution of the raw data noise that is determined from the integral of the standard deviation of the baseline during the injection.

[4] = target: T2, mouse cGAS (Mus musculus, UniProt Q8C6L5); assay: RapidFire mass spectrometry (RF-MS) cGAS enzymatic assay, cGAMP product formation; format: biochemical; conditions: for IC50: read-out: IC50
T2 construct: recombinant full-length mouse cGAS in reaction buffer; His6-SUMO (N, cleaved yes); made in house; host or cells: E. coli BL21(DE3) RIL
T2 sequence (Q8C6L5 whole entry): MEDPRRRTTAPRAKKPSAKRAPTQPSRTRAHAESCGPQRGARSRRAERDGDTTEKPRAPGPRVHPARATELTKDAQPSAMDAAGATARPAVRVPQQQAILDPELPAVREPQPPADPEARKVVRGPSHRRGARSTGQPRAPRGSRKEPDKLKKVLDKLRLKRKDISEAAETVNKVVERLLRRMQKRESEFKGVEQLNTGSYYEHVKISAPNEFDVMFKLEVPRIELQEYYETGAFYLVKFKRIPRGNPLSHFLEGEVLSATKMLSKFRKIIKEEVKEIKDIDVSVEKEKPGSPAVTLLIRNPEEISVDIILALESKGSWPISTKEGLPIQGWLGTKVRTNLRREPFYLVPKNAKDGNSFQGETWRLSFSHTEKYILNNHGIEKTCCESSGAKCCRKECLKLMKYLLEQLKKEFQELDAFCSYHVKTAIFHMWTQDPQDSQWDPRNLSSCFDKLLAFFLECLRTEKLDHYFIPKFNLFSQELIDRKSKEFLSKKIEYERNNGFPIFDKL
Method in brief: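 Reactions were stopped with 0.5% formic acid, then ATP, GTP and cGAMP were separated by solid-phase extraction on graphitic carbon and detected by negative-ion MS. Product formation (%) = AUCcGAMP×100/(AUCcGAMP + ½AUCATP + ½AUCGTP). Percent inhibition was normalized to positive and negative controls.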

[5] = cGAS in presence of dsDNA, no ATP/GTP
[6] = Supplementary Table 3, analogs more potent than RU166365

SMILES | LD50 over cellular IC50 [1] [fold] | IC50 [2] [nM] | T*ΔS ([3]; cGAS in presence of dsDNA) [kcal/mol] | rM ([3]; cGAS in presence of dsDNA) | ΔG ([3]; cGAS in presence of dsDNA) [kcal/mol] | ΔH ([3]; cGAS in presence of dsDNA) [kcal/mol] | Kd [3, 5] | IC50 [4, 6] [nM] | other results
Cc1nn(-c2nc3ccccc3[nH]2)c(O)c1C1OC(=O)c2ccccc21 (centres unmarked) [RU166365] | 9 | 4980 | -4.504 | 0.9075 | -9.813 | -14.32 | 64.1 nM and 64 nM | 1890 | LD50 ([1]; listed as RU.365): 45 µM; Kd ([3]; cGAS/dsDNA + 1 mM ATP): 104 nM; Kd ([3]; cGAS/dsDNA + 1 mM GTP): 298 nM; T*ΔS ([3]; cGAS/dsDNA + ATP 1 mM): -2.493 kcal/mol; rM ([3]; cGAS/dsDNA + ATP 1 mM): 0.9605; ΔG ([3]; cGAS/dsDNA + ATP 1 mM): -9.524 kcal/mol; ΔH ([3]; cGAS/dsDNA + ATP 1 mM): -12.02 kcal/mol; T*ΔS ([3]; cGAS/dsDNA + GTP 1 mM): -3.668 kcal/mol; rM ([3]; cGAS/dsDNA + GTP 1 mM): 0.9257; ΔG ([3]; cGAS/dsDNA + GTP 1 mM): -8.902 kcal/mol; ΔH ([3]; cGAS/dsDNA + GTP 1 mM): -12.57 kcal/mol; IC50 ([4]; Supplementary Table 2, batch of compounds stored in the screening library): 520 nM; inhibition at 12.5 µM ([4]; Supplementary Table 2, compound 12.5 µM, read-out: % inhibition at 12.5 µM): 99%
Cc1nn(-c2nc3ccc(Cl)c(Cl)c3[nH]2)c(O)c1C1OC(=O)c2ccccc21 (centres unmarked) [RU320521, 3-[1-(6,7-dichloro-1H-benzimidazol-2-yl)-5-hydroxy-3-methyl-pyrazol-4-yl]-3H-isobenzofuran-1-one] | 88 | 700 | -6.134 | 0.8071 | -10.15 | -16.29 | 36.2 nM | 110 | LD50 ([1]; listed as RU.521): 62 µM; effect of structural modification on cGAS inhibitory potency ([4]; compared with RU.365): increased inhibitory potency; improvement in potency ([4]; relative to RU.365): 17 fold
